Active and inactive are the calls of the source. The rule behind the calls is not given here.
Test system: Ga16-expressing cells (no TAAR1), calcium fluorescence, counterscreen
Assay: nonselective Ga16 agonists, potency, late-stage follow-up, counter-screen for TAAR1 agonist project, cell-based, fluorescence, dose response (AID 743232)

SMILES	EC50
O=C(Nc1ccccc1)Nc1ccncc1	> 29.9 µM (inactive)
O=c1[nH]cc(NCCc2ccccc2)c(=O)[nH]1	> 29.9 µM (inactive)
c1ccc2c3c([nH]c2c1)CCNC3	> 29.9 µM (inactive)
CCOC(=O)C(NC(=O)CC)(N1CCc2ccccc2C1)C(F)(F)F (stereo unspecified)	> 29.9 µM (inactive)
c1ccc(CCN2CN(CCCN3CCOCC3)c3nc4ccccc4n3C2)cc1	> 29.9 µM (inactive)
COc1cc(C(=O)CCN2CCC(c3ccccc3)C2)cc(OC)c1OC (stereo unspecified)	> 29.9 µM (inactive)
Nc1nc(Nc2ccccc2)nc2ccccc12	> 29.9 µM (inactive)
O=C(CCN1CCC(c2ccccc2)C1)c1ccc2c(c1)OCCO2 (stereo unspecified)	> 29.9 µM (inactive)
CC(=NCCc1ccccc1)C1CCOC1=O (stereo unspecified)	> 29.9 µM (inactive)
OCCNc1nc(Nc2cccc(O)c2)nc2ccccc12	> 29.9 µM (inactive)
NC(N)=Nc1cc2ccccc2c2ccccc12	> 29.9 µM (inactive)
O=C(Nc1ccncc1)Nc1ccc(F)cc1	> 29.9 µM (inactive)
CCOC(=O)C(NC(C)=O)(N1CCc2ccccc2C1)C(F)(F)F (stereo unspecified)	> 29.9 µM (inactive)
OCCNc1nc(Nc2ccc(O)cc2)nc2ccccc12	> 29.9 µM (inactive)
CC(=C1C(=O)c2ccccc2C1=O)N1CCc2ccccc2C1	> 29.9 µM (inactive)
O=C(C(=O)N1CCc2ccccc2C1)c1cn(CC(=O)N2CCCCC2)c2ccccc12	> 29.9 µM (inactive)

SMILES	EC50
Cc1[nH]c2ccccc2c1CN1CCc2ccccc2C1	> 29.9 µM (inactive)
O=C(CCN1CCC(c2ccccc2)C1)c1cccs1 (stereo unspecified)	> 29.9 µM (inactive)
Cc1ccc(NC(=O)CCN2CCc3ccccc3C2)cc1	> 29.9 µM (inactive)
CC1(C)CCCN(C(=O)c2coc(=O)c(Br)c2)C1	> 29.9 µM (inactive)
NC(N)=NN=Cc1c(Cl)cccc1Cl	> 29.9 µM (inactive)
Cc1cc(N(C)C)nc(Nc2ccccc2)n1	> 29.9 µM (inactive)
NCc1c(O)ccc2ccccc12	> 29.9 µM (inactive)
Cc1cc(C)n(C(CC(=O)N2CCc3ccccc3C2)C(=O)O)n1 (stereo unspecified)	> 29.9 µM (inactive)
O=C(Nc1cccc2ccccc12)N1CCc2ccccc2C1	> 29.9 µM (inactive)
c1ccc2c(c1)CCN(c1nc3cc4c(cc3s1)OCO4)C2	> 29.9 µM (inactive)
Nc1nc(Nc2cccc(F)c2)nc2ccccc12	> 29.9 µM (inactive)
O=C(CCCCl)N1CCc2[nH]c3ccccc3c2C1	> 29.9 µM (inactive)
O=C(Nc1cccnc1)Nc1cccc(F)c1	> 29.9 µM (inactive)
c1ccc(CCn2nnnc2C(c2cccs2)N2CCN(Cc3ccc4c(c3)OCO4)CC2)cc1 (stereo unspecified)	> 29.9 µM (inactive)
O=C(CCN1CCc2ccccc2CC1)c1ccc2c(c1)OCCO2	> 29.9 µM (inactive)
